Our source for the IC50 values is PubChem BioAssay AID2305 (GlaxoSmithKline (GSK), 2010).

In the assay the test system is P. falciparum 3D7 growth, pLDH absorbance. The experiment in a line: P. falciparum 3D7 growth inhibition, dose response, strain 3D7 (AID 2305).

Molecules are shown by their SMILES. Where “and” joins values, the source holds several entries; their conditions need not be identical. Equal values may be shown once.

The IC50 is the concentration that gives 50% inhibition. Read a high IC50 as weaker potency in that assay. Compound `O=C(Nc1ccccc1)N(Cc1cccc(-c2ccc(CNC3CCCC3)cc2)c1)C1CCN(Cc2ccccc2)CC1` showed an IC50 of 0.39 µM.

With `COc1ccc(N2CCN(c3nc(N)c4cc(OC)c(OC)cc4n3)CC2C)cc1` (stereo unspecified), the half-maximal inhibitory concentration (IC50) amounted to 1.42 µM.

`CN(C)CC(=O)Nc1ccc(Nc2nccc(NCC(O)c3ccccc3)n2)cc1` (stereo unspecified) registered an IC50 of 0.97 µM.

`Cc1cc(N[C@@H](CC(C)C)C(=O)NCCOc2ccccc2)nc(NCCc2ccc(F)cc2)n1` returned an IC50 of 1.29 µM.

With `c1ccc2c(C3CCN(CCCCOc4ccc5c(c4)CCN(CC4CC4)CC5)CC3)c[nH]c2c1`, the IC50 is 0.98 µM.

`O=c1cc(NCC2(CNCc3cn(Cc4ccccc4)c4ccccc34)CCCCC2)[nH]c2ccccc12` came in with an IC50 of 0.68 µM.

As to `CN(C)CCCOc1cccc(NC(=O)Nc2ccc(Cl)c(Cl)c2)c1`, the IC50 amounted to 0.96 µM.

Compound `COc1ccc(S(=O)(=O)N2CCOCC2)cc1NC(=O)c1cc2ccccc2o1` displayed an IC50 of 0.79 µM.

With `COc1ccc2nccc([C@@H](O)CN3CCC(NCc4cc5c(cc4F)SCC(=O)N5)CC3)c2n1`, the IC50 was 1 µM.

The compound `CCS(=O)(=O)N1CCN(c2nc(-c3ccccc3)nc(COC)c2Cc2ccccc2F)CC1` had an IC50 of 1.45 µM.

On to `CN1CCN(c2ccc(Nc3c(C(N)=O)cnc4cc(-c5ccoc5)ccc34)cc2)CC1`, for which the IC50 was determined as 0.81 µM.

For the compound `Nc1ncc(-c2cccc(F)c2)cc1-c1nc2ccc(F)cc2[nH]1`, the IC50 was 0.18 µM.

As to `Oc1ccc(Nc2nc(NCC3CCCO3)c3ccccc3n2)cc1` (stereo unspecified), the IC50 amounted to 0.81 µM.

In turn, `OCC1CCN(Cc2ccc(-c3cccc(-c4nc5ccc(F)cc5[nH]4)c3)cc2)CC1` gave an IC50 of 0.91 µM.

`CCOC(=O)c1ccc(NC(=O)N(Cc2ccc(-c3ccc(CN4CCNCC4)cc3)cc2)Cc2cccnc2)cc1` had a half-maximal inhibitory concentration (IC50) of 0.93 µM.

As to `Cn1cncc1CCN(Cc1ccc(-c2ccc(C(F)(F)F)cc2)cc1)C(=O)Cn1c(CCc2cccc(F)c2F)cc(=O)c2cccnc21`, the IC50 worked out at 0.85 µM.

`Cc1ccc(OCC2CCN(c3ncc(C(=O)NCCCN4CCCC4=O)cc3Cl)CC2)cc1` returned a concentration for half-maximal inhibition (IC50) of 1.26 µM.

`O=C(Nc1ccc(-c2nc3ccccc3[nH]2)cc1)C1CCN(Cc2cccc(F)c2F)CC1` registered a concentration for half-maximal inhibition (IC50) of 1.1 µM.

`FC(F)(F)c1ccc2nc(-c3ccc(-c4ccc(CNCC5CCCO5)cc4)cc3)[nH]c2c1` (stereo unspecified): the 50% inhibitory concentration (IC50) turned out to be 0.41 µM.

Compound `COc1cccc(C(=O)Nc2ccc(-c3nc4ccccc4[nH]3)cc2)c1` returned a half-maximal inhibitory concentration (IC50) of 0.8 µM.

The compound `CC1=C(C(=O)Nc2ccc(Cl)cc2)C(c2ccncc2)n2nc(C(F)(F)F)nc2N1` (stereo unspecified) had an IC50 of 0.93 µM.

For the compound `COc1ccc(CNCc2cccc(-c3ccc(-c4nc5c(C)cccc5[nH]4)s3)c2)cc1`, the IC50 was found to be 0.26 µM.

Compound `Cc1cc(NCCc2ccccc2)nc(/N=C(\N)Nc2ccc(Cl)cc2)n1` returned an IC50 of 0.23 µM.

For the compound `COc1cc2nccc(Nc3cc(C)cc(O)c3)c2cc1OC`, the IC50 was determined as 0.91 µM.

Compound `Cc1cccc(CC(N)=NCCCCCCN=C(N)Cc2cccc(C)c2)c1` gave an IC50 of 0.17 µM.

As to `COc1ccc(Nc2nc(NC3CCCC3)cc(-c3ccc(OC)cc3)n2)cc1`, the IC50 came out at 1.03 µM.

For the compound `Cc1c(Br)cc2[nH]c(-c3ccc(C(=O)NC4CCN(Cc5ccccc5)CC4)cc3)nc2c1C`, the IC50 is 0.33 µM.

Compound `CCCCNS(=O)(=O)c1ccc(NC(=O)c2cc([N+](=O)[O-])ccc2Cl)cc1` yielded an IC50 of 0.9 µM.

`CCCCCCCCCN(CCC)C(=O)[C@@H]1OC(C(=O)OC(c2ccccc2)c2ccccc2)=C[C@H](NC(=O)OC(C)(C)C)[C@H]1NC(C)=O` showed an IC50 of 0.64 µM.

`CCCC(C)n1ccc2c3c(N)nc(N)nc3ccc21` (stereo unspecified) showed an IC50 of 0.05 µM.

As for `Cc1ccc(C(C)C)c(Oc2cnc(NC(CO)c3ccccc3)nc2N)c1` (stereo unspecified), the IC50 was 0.96 µM.

`O=C(/C=C/c1ccc(I)cc1)NCCCCCN1CCC(c2c[nH]c3ccc(O)cc23)CC1` showed an IC50 of 0.77 µM.

As to `Cc1nnc2c(NC(=O)/C=C/c3ccc(OC(F)(F)F)cc3)cc3cc(Cl)ccc3n12`, the IC50 is 0.17 µM.

Turning to `O=C(/C=C/c1ccc(Cl)c(Cl)c1)NCCCCCN1CCN(C(=O)Nc2ccc(Cl)c(C(F)(F)F)c2)CC1`, the IC50 turned out to be 0.82 µM.

The compound `CN(C)C(=S)N=Nc1c(O)[nH]c2ccc(OC(F)(F)F)cc12` gave an IC50 of 1.02 µM.

In turn, `CC1(C)N=C(N)N=C(N)N1OCc1ccc2ccccc2c1CON1C(N)=NC(N)=NC1(C)C` displayed an IC50 of 0.66 µM.

As for `CC(NCC(O)Cn1c2ccccc2c2ccccc21)c1ccccc1` (stereo unspecified), the concentration for half-maximal inhibition (IC50) worked out at 0.93 µM.

The compound `O=C(/C=C/c1ccc(Cl)c(Cl)c1)NCCCCCN1CCCC(CNS(=O)(=O)c2ccc(F)cc2)C1` (stereo unspecified) returned an IC50 of 1.16 µM.

`CNS(=O)(=O)Cc1ccc(Nc2nccc(Nc3cccc4c3cnn4C(=O)Nc3ccccc3)n2)cc1` came in with an IC50 of 0.96 µM.

The compound `NC1=NC(c2ccccc2)(c2ccccc2)C(=O)N1CCCCc1ccccc1` had an IC50 of 0.76 µM.

`Oc1c(C(Nc2nc3ccccc3s2)c2ccccc2)ccc2cccnc12` (stereo unspecified) gave an IC50 of 0.65 µM.

The compound `Cc1cccc2[nH]c(-c3cccc(-c4cccc(NC(=O)CN5CCN(C)CC5)c4)c3)nc12` yielded an IC50 of 0.53 µM.

As for `COc1ccc(OC)c(Cc2cnc3nc(N)[nH]c(=O)c3c2C)c1`, the IC50 turned out to be 0.36 µM.

As for `COc1cc(/C=C/C(=O)NC2CCC(CN3CCC(c4c[nH]c5ccccc45)CC3)CC2)ccc1O` (stereo unspecified), the IC50 was 0.81 µM and 0.79 µM.

`CCOc1ccc(NC(=O)c2ccc(CN3CCCN(Cc4cccc(O)c4)CC3)cc2)cc1` registered a half-inhibitory concentration (IC50) of 1.31 µM.

Consider `CC(C)CCN1CCC(Oc2ccc(NC(=O)c3ccc4ncccc4c3)cc2Cl)C1` (stereo unspecified), for which the IC50 amounted to 0.97 µM.

Compound `Cc1cc(F)ccc1[C@H]1CNCCN1C(=O)N(C)C(C)(C)c1cc(C(F)(F)F)cc(C(F)(F)F)c1` returned a half-maximal inhibitory concentration (IC50) of 0.59 µM.

Consider `CC(C)(C(=O)NCCC1CCN(CCCCCNC(=O)/C=C/c2ccc(Cl)c(Cl)c2)CC1)c1ccc(Cl)cc1`, for which the IC50 was 1.28 µM.

`CCn1c(-c2nonc2N)nc2c(-c3cccc(NC(=O)Nc4ccc(C(F)(F)F)cc4)c3)ncc(OCCCN)c21` gave an IC50 of 1.05 µM.

As to `COc1ccccc1C1CCN(C2CCC(NC(=O)/C=C/c3ccc(C(F)(F)F)cc3F)CC2)CC1` (stereo unspecified), the IC50 is 0.99 µM.

Turning to `O=C(Nc1ccc(OC2CCN(Cc3ccsc3)CC2)c(Cl)c1)c1ccco1`, the IC50 came out at 0.78 µM.

The compound `CCS(=O)(=O)c1ccc(-c2cnc3[nH]cc(-c4ccc(N)cc4)c3c2)cc1` registered an IC50 of 0.85 µM.

The compound `CC(Cc1ccc(NC(=O)c2ccc(CNCCCCc3ccccc3)cc2)cc1)NCCc1cccc(Cl)c1` (stereo unspecified) displayed an IC50 of 0.33 µM.

Compound `O=C(CCc1cnc[nH]1)Nc1cccc(-c2cccc(-c3nc4ccc(C(F)(F)F)cc4[nH]3)c2)c1` gave an IC50 of 0.13 µM.

Regarding `CCNCCCC(C)Nc1ccnc2cc(Cl)ccc12` (stereo unspecified), the IC50 was 0.2 µM.

`CCN1CCN(c2cc(C)c3cc(NC(=O)C=Cc4cccc(OC)c4OC)ccc3n2)CC1` showed an IC50 of 0.7 µM.

Turning to `CCN(CC)c1ccc(-c2nc3ncc(Cl)cc3[nH]2)cc1`, the IC50 worked out at 1.13 µM.

`Cc1c(-c2ccc3c(c2)C(NCCCN2CCCCC2)CC3)cnc(N)c1C` (stereo unspecified) had an IC50 of 1.11 µM.

In the case of `Cc1ncccc1C(=O)Nc1ccc(-c2cccc(-c3nc4c(C)cccc4[nH]3)c2)cc1`, the IC50 came out at 0.73 µM.

In turn, `COc1ccc2nccc([C@@H](O)CN3CCC(NCc4cc5c(F)ccc(F)c5[nH]4)CC3)c2c1` came in with an IC50 of 0.14 µM.

Regarding `CC(C)CNC(=O)c1cncc(-c2ccc(CN(C)C3CCN(C)CC3)cc2)c1`, the IC50 was 0.88 µM.

Take `Cc1cc2ncn(-c3nccc(NCc4ccc(F)c(C)c4)n3)c2cc1C`: the IC50 turned out to be 0.99 µM.

In the case of `O=C(C=Cc1ccc([N+](=O)[O-])cc1)NC1CCC(CN2CCC(c3c[nH]c4ccccc34)CC2)CC1` (stereo unspecified), the IC50 is 0.79 µM and 0.84 µM.

For the compound `Fc1cc(Cl)ccc1Nc1ccnc2cc(-c3ccc(CN4CCOCC4)o3)ccc12`, the IC50 worked out at 0.64 µM.

`OC(CNCc1ccco1)Cn1c2ccc(Br)cc2c2cc(Br)ccc21` (stereo unspecified) yielded an IC50 of 1.07 µM.

`Cn1c(=O)n(C)c2cc(CNCCNc3ccnc4cc(Cl)ccc34)ccc21` registered an IC50 of 0.14 µM.

In the case of `O=C(Nc1ccc(Oc2ccccc2)cc1)N1CCC(CN2CCC(c3c[nH]c4ccccc34)CC2)CC1`, the IC50 was 0.61 µM.

Compound `CCNC(=O)c1ccc2c(c1)c(C)c(C)n2Cc1ccc(F)cc1` gave an IC50 of 0.77 µM.

Consider `COc1cc2ncnc(Nc3ccc(OCc4ccccc4)c(I)c3)c2cc1OC`, for which the IC50 amounted to 0.71 µM.

Compound `O=C(NCCCCN1CCC(c2ccc(C(F)(F)F)cc2C(F)(F)F)CC1)c1ccc(NC(=O)c2ccc(Cl)cc2)cc1` came in with an IC50 of 0.61 µM.

For the compound `O=C(/C=C/c1ccc(Cl)c(Cl)c1)N1CCC(CCN2CCc3[nH]c4ccccc4c3C2)CC1`, the half-maximal inhibitory concentration (IC50) was determined as 0.89 µM.

In turn, `COc1cc(OC)cc(-c2nn(-c3ccc([N+](=O)[O-])cc3C#N)c(=S)n2CC2CCCO2)c1` (stereo unspecified) yielded a 50% inhibitory concentration (IC50) of 0.85 µM.

Turning to `COc1ccc2ncc(F)c([C@H](O)CN3CCC(NCc4ccc5c(c4)OCCO5)CC3)c2c1`, the IC50 is 0.15 µM.

In the case of `COc1ccc(C(=O)N2CCC(CN3CCOC(c4ccccc4)(c4ccccc4)C3)CC2)cc1`, the IC50 amounted to 0.17 µM.

As for `O=C(NCc1cccs1)[C@H](Cc1ccccc1)Nc1ccnc(NCC2CCCCC2)n1`, the IC50 was 1.05 µM.

As to `O=C(Cn1cnc2c(nnn2Cc2ccccc2F)c1=O)Nc1ccc2c(c1)OCCO2`, the IC50 amounted to 0.95 µM.

Compound `COC(=O)/C=C/c1ccc(CC(C)NCC(O)c2cccc(Cl)c2)cc1` (stereo unspecified) returned an IC50 of 0.75 µM.

`Cc1cc(N[C@@H](Cc2ccccc2)C(=O)NCCOc2ccccc2)nc(NCC2CCCCC2)n1` yielded an IC50 of 0.85 µM.

As to `O=C(/C=C/c1cc(C(F)(F)F)ccc1F)N1CCC(CN2CCC(c3c[nH]c4ccccc34)CC2)CC1`, the IC50 came to 0.99 µM.

Take `Fc1ccc(N(c2nc(-c3cc(F)cc(C(F)(F)F)c3)cs2)C2CCNCC2)cc1`: the concentration for half-maximal inhibition (IC50) came to 0.96 µM.

As for `OC(CNCc1ccccc1OCc1ccccc1)c1cc(C(F)(F)F)cc(C(F)(F)F)c1` (stereo unspecified), the IC50 worked out at 0.13 µM.

The compound `CCCCNCc1ccc(OCc2cccc(COc3ccc(CNCCCC)cc3)c2)cc1` registered an IC50 of 0.32 µM.

In the case of `O=C(C=Cc1ccc(F)c(Br)c1)N1CCC(CN2CCC(c3c[nH]c4ccccc34)CC2)CC1`, the half-maximal inhibitory concentration (IC50) was found to be 0.75 µM.

In the case of `CN1CCN(CCCN(Cc2cccc(-c3cccc(CNCCc4ccccc4)c3)c2)C(=O)Nc2ccccc2)CC1`, the IC50 was 0.58 µM.

Regarding `C[C@H](Nc1c(Nc2ccc3[nH]ccc3c2)c(=O)c1=O)C1CCCCC1`, the IC50 came out at 0.21 µM.

For `Cc1cc(C2CCN(CCCCNC(=O)c3ccc(-c4ccc(C(F)(F)F)cc4)cc3)CC2)c(C)cc1OCCOC1CCCCO1` (stereo unspecified), the IC50 was determined as 0.79 µM.
